What was measured:
[1] = target: chicken hsp90 (Gallus gallus, UniProt P11501); test: Affinity chromatography on EGCG-conjugated Sepharose, hsp90 point and truncation mutants; type: binding; set-up: made in house; host or cells: coupled transcription/translation in rabbit reticulocyte lysate (TNT, Promega), 35S-labelled; settings: smallest truncation mutant N538, amino acids 538-728
Description: (§1) Murine AhR and ARNT cDNA (obtained from J. Whitlock and O. Hankinson, respectively) were inserted into pcDNA3 (Invitrogen, Carlsbad, Calif.). Chicken hsp90 constructs (FIG. 5), c90711hsp (wild-type), c90G94D (wild-type point mutant gly94→Asp (Grenert et al., J. Biol. Chem. 272:23843-23850 (1997), which is hereby incorporated by reference in its entirety), c90D92A (wild-type point mutant Asp92→Ala (Sullivan et al., J. Biol. Chem. 268:20373-20379 (1993), which is hereby incorporated by reference in its entirety), c90N221 (wild-type truncation mutant encoding a.a. 221-728 (Sullivan et al., J. Biol. Chem. 268:20373-20379 (1993), which is hereby incorporated by reference in its entirety)), c90N303 (a.a. 303-728) and c90N538 (a.a. 538-728) were kind gifts from Dr. D. Toft (Rochester, Minn.). The C-terminal truncation mutant c900507 (a.a. 1-221) was obtained from Dr. L. Neckers (Rockville, Md.) (Grenert et al., J. Biol. Chem. 272:23843-23850 (1997); Marcu et al., J. Biol. Chem. 275:37181-37186 (2000), which are hereby incorporated by reference in their entirety). Human p23 cDNA was excised from pQE80-p23 (obtained from W. Chan Stockton, Calif.) by sequential digests using the restriction enzymes Sad (3′-end) and BamHI (5′-end) and inserted into the similarly digested pET28a (Novagen, Madison, Wis.). […]

[2] = target: T1, ARNT (Mus musculus, UniProt P53762); test: Affinity chromatography on EGCG-conjugated Sepharose, in vitro translated ARNT; type: binding, murine; settings: 35S-ARNT in vitro translated in RRL
T1 construct: made in house; host or cells: coupled transcription/translation in rabbit reticulocyte lysate (TNT, Promega), 35S-labelled
T1 sequence (P53762 whole entry): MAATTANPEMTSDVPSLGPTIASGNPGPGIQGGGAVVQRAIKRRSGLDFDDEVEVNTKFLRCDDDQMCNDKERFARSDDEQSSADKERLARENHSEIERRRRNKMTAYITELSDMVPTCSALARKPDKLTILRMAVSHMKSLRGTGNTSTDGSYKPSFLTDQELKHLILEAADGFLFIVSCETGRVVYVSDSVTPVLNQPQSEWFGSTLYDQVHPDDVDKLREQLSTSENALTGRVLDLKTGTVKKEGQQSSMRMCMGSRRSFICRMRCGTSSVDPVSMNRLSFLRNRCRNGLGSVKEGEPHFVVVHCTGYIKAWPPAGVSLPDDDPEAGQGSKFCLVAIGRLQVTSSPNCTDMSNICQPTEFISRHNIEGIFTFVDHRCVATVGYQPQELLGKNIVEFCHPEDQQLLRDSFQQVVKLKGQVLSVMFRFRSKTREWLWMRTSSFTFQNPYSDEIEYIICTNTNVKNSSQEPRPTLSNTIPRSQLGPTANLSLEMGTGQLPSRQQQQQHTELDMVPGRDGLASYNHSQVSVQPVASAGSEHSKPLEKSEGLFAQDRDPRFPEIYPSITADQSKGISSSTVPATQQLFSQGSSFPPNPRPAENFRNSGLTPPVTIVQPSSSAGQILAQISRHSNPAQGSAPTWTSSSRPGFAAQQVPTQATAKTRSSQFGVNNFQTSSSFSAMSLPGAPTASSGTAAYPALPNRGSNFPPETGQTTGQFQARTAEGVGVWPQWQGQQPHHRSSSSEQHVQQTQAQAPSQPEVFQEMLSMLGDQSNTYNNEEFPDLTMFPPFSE
Description: as §1

[3] = target: T2, p23 (Homo sapiens, UniProt Q15185); test: Affinity chromatography on EGCG-conjugated Sepharose, in vitro translated p23; type: binding; settings: 35S-p23 in vitro translated in RRL
T2 construct: made in house; host or cells: coupled transcription/translation in rabbit reticulocyte lysate (TNT, Promega), 35S-labelled
T2 sequence (Q15185 1-160): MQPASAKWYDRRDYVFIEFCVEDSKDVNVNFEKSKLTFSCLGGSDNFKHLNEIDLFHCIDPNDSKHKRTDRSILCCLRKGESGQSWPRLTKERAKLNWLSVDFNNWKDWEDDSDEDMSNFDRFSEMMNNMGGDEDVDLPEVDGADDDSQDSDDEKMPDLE
Description: as §1

Chain of chicken hsp90 (P11501 538-728): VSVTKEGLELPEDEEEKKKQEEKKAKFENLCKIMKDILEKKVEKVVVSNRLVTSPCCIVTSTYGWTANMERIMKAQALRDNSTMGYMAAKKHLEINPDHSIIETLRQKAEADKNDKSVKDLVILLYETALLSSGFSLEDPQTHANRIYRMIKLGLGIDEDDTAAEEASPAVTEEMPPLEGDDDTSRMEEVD

O=C(O[C@@H]1Cc2c(O)cc(O)cc2O[C@@H]1c1cc(O)c(O)c(O)c1)c1cc(O)c(O)c(O)c1 [EGCG, epigallocatechin gallate]
location of the binding site on hsp90 [1]: binding of EGCG occurs within this region of the protein
binding of ARNT to immobilized EGCG [2]: incapable of binding immobilized EGCG
binding of p23 to immobilized EGCG [3]: incapable of binding immobilized EGCG
